# Activity calls are given as the source filed them. The rule behind the calls is not given here.
# Key:
# [1] = tested on: Radical scavenging activity; assay: Antioxidant activity assessed as DPPH free radical scavenging activity after 20 to 60 mins by spectrophotometry; format: functional; design: concentration or dose not given beside the values
# Glycine max = assay: Inhibition of soybean LOX assessed as inhibition of sodium linoleate to 13-hydroperoxylinoleic acid conversion at 0.1 mM by UV-visible spectrophotometry
# [2] = Antioxidant activity against AAPH-induced lipid peroxidation assessed as linoleic acid oxidation to diene hydroperoxide at 0.1 mM by UV-visible spectrophotometry; format: functional
# Rattus norvegicus = assay: Antiinflammatory activity in Fisher 344 rat assessed as inhibition of carrageenan-induced paw edema at 0.01 mmol/kg, ip administered simultaneously with carrageenan measured after 3.5 hrs relative to control; format: functional; details: Fisher 344, ip
# [3] = Inhibition of soybean LOX assessed as inhibition of sodium linoleate to 13-hydroperoxylinoleic acid conversion by UV-visible spectrophotometry; design: species or system Glycine max
inhibition (Glycine max),IC50 [3] [µM],Structure (SMILES),Activity [1],inhibition [2],inhibition in vivo at 10 µmol/kg (Rattus norvegicus) [%]
81%,,O=C(O)c1cncn1C[C@@H]1CCC(=O)N1Cc1ccccc1,inactive,inactive,
,,COc1ccc2c(c1)c(CC(=O)O)c(C)n2C(=O)c1ccc(Cl)cc1 [INDOMETHACIN],,,47
5.2%,,O=C1CC[C@@H](Cn2ccnc2)N1Cc1ccccc1-c1nn[nH]n1,30%,32%,
inactive,,COC(=O)c1ccc(CN2C(=O)CC[C@H]2Cn2ccnc2)cc1,6%,13%,
inactive,,COC(=O)c1cncn1C[C@@H]1CCC(=O)N1Cc1ccc(C(=O)O)cc1,26%,inactive,
,,Cc1c(C)c2c(c(C)c1O)CCC(C)(C(=O)O)O2 (stereo not drawn),,63%,
,80,O=C(O)c1ccc(CN2C(=O)CC[C@H]2Cn2ccnc2)cc1,6%,2%,41
,600,O=C(O)/C=C/c1ccc(O)c(O)c1 [CAFFEIC ACID],5.5%,17%,
84%,,CC(Cc1ccc(O)c(O)c1)C(C)Cc1ccc(O)c(O)c1 (stereo not drawn),81%,,
13%,,O=C1CC[C@@H](Cn2ccnc2)N1Cc1ccccc1,9%,11%,
inactive,,O=C1CC[C@@H](Cn2ccnc2)N1Cc1cccc(O)c1,29%,13%,
,70.5,COC(=O)c1ccc(CN2C(=O)CC[C@H]2Cn2cncc2C(=O)O)cc1,3%,96%,34
